Data published in US8119159B2, “Solid oral dosage form containing an enhancer” (Merrion Research III Limited, priority 1999, dated 2012).
Each block holds one compound with its values, some of them ahead of it.

Legend:
Caco-2 monolayers [1] = assay: TEER of Caco-2 monolayers with MCFA sodium salts and 3H-TRH; type: cell-based; conditions: Caco-2 monolayers over 2 hours, sodium salts with 3H-TRH, concentrations of Table 1
Description: (§1) Cell Culture: Caco-2 cells were cultured in Dulbecco's Modified Eagles Medium (DMEM) 4.5 g/L glucose supplemented with 1% (v/v) non-essential amino acids; 10% fetal calf serum and 1% penicillin/streptomycin. […] The cells were grown and expanded in standard tissue culture flasks and were passaged once they attained 100% confluence. The Caco-2 cells were then seeded on polycarbonate filter inserts (Costar; 12 mm diameter, 0.4 μm pore size) at a density of 5×10^5 cells/cm^2 and incubated in six well culture plates with a medium change every second day. Confluent monolayers between day 20 and day 30 seeding on filters and at passages 30-40 were used throughout these studies.
(§2) Transepithelial Transport Studies: The effects of sodium salts of various MCFAs on the transport of ^3H-TRH (apical to basolateral flux) was examined as follows: 15.0 μCi/ml (0.2 μM) ^3H-TRH was added apically at time zero for TRH flux experiments. The transport experiments were performed in Hank's Balanced Salt Solution (HBSS) containing 25 mM N-[2-hydroxyethyl]-piperazine-N′-[2-ethanesulfonic acid] (HEPES) buffer, pH 7.4 at 37° C. Due to variations in solubilities, various concentrations of the different MCFA sodium salts and various apical buffers were used as shown in Table 1. In all cases the basolateral chamber contained regular HBSS+HEPES.
(§3) After removing the cell culture medium, the monolayers were placed in wells containing prewarmed HBSS (37° C.); 1 ml apically and 2 ml basolaterally. Monolayers were incubated at 37° C. for 30 mins. Then at time zero, apical HBSS was replaced with the relevant apical test solution containing the radiolabelled compounds with and without the enhancer compound. […] The plates were placed on an orbital shaker in an incubator (37° C.). Transport across the monolayers was followed by basolateral sampling (1 ml) at 30 min. intervals up to 120 mins. At each 30 min. interval each insert was transferred to a new well containing 2 ml fresh prewarmed HBSS. Apical stock radioactivity was determined by taking 10 μl samples at t=0 and t=120 mins. […] Mean values for ^3H-TRH concentrations were calculated for the apical and basolateral solutions at each time point.

Caco-2 monolayers [2] = assay: 3H-TRH apical to basolateral transport (Papp) across Caco-2 monolayers; type: in vitro ADME; conditions: sodium salts at the concentrations of Table 1
Description: as §1, §2
as §3, with “At each 30 min. interval each insert was transferred to a new well containing 2 ml fresh prewarmed HBSS.” left out

[3] = oral conventional forms, cited from earlier work
[4] = test system: plasma anti-factor Xa activity; assay: Intraduodenal LMWH with enhancers in rats (open loop), plasma anti-factor Xa; type: in vivo, rat; conditions: intraduodenal 1000 IU, absence of enhancer
in vivo = assay: in vivo
Description: Beagle dogs (10-15 Kg) were sedated with medetomidine (80 μg/kg) and an endoscope was inserted via the mouth, esophagus and stomach into the duodenum. The test solutions (10 ml), comprising leuprolide acetate (Mallinckrodt Inc, St. Louis, Mo.) with or without enhancer reconstituted in deionized water were administered intraduodenally via the endoscope. Following removal of the endoscope, sedation was reversed using atipamezole (400 μg/kg). The parenteral reference solutions comprising 1 mg Leuprolide reconstituted in 0.5 ml sterile water were administered intravenously and subcutaneously respectively.

[5] = Closed loop rat model, intraduodenal TRH with enhancer, serum TRH; type: in vivo; conditions: interduodenal bolus 500 or 1000 μg TRH with 35 mg enhancer
Description: Male Wistar rats (weight range 250 g-350 g) were anaesthetized with ketamine hydrochloride/acepromazine. […] All intraduodenal dose volumes (for samples and control) were 1 ml/kg. The proximal end of the segment was ligated and the loop was sprayed with isotonic saline (37° C.) to provide moisture and then replaced in the abdominal cavity avoiding distension. The incision was closed with surgical clips. A group of animals were administered TRH in PBS (100 μg in 0.2 ml) by subcutaneous injection as a reference.

[6] = test system: plasma anti-factor Xa activity; assay: Dog study of oral heparin/enhancer tablets, anti-factor Xa and clinical assessment; type: in vivo; conditions: dogs, IR formulations, equivalent dose of heparin
Description: Tablets from batches 3, 7 and 15 in Tables 5 and 6 above were dosed orally to groups of five dogs in a single dose crossover study. […] Blood samples for anti-factor Xa analysis were collected from the jugular vein at various time points.

[7] = Closed-loop rat segment, intraileal USP heparin with enhancer, APTT response; type: in vivo; conditions: USP heparin 1000 iu, sodium caprate 10 and 35 mg
Description: APTT measurements were taken at various time points.

[8] = test system: plasma anti-factor Xa activity; assay: Closed-loop rat segment, intraileal USP heparin with enhancer, plasma anti-factor Xa; conditions: USP heparin 1000 iu
Description: The procedure carried out in Example 1 (a) above was repeated using USP heparin in place of TRH and dosing intraileally rather than intraduodenally. A mid-line incision was made in the abdomen and the distal end of the ileum located (about 10 cm proximal to the ileo-caecal junction). 7-9 cm of tissue was isolated and the distal end ligated, taking care to avoid damage to surrounding blood vessels. Heparin absorption as indicated by […] (APTT) response was measured by placing a drop of whole blood (freshly sampled from the tail artery) on the test cartridge of Biotrack 512 coagulation monitor. APTT measurements were taken at various time points.
Citrated blood samples were centrifuged at 3000 rpm for 15 mins. to obtain plasma for anti-factor Xa analysis. […] The control in each case is a solution of the same heparin concentration containing no enhancer.

Compound: CCCCCCCCCCCCCCCCCC(=O)[O-].[Na+] [Batch C18]
effect on TEER compared to the control (Caco-2 monolayers [1]): minimal reduction in TEER

Compound: CCCCCCCCCCCC(=O)[O-].[Na+] [Batch C12, sodium laurate]
effect on TEER compared to the control (Caco-2 monolayers [1]): some cell damage (reduction in TEER)
effect on permeability constant Papp for 3H-TRH compared to the control (Caco-2 monolayers [2]): considerable increases

Compound: NCCCC(O)(P(=O)(O)O)P(=O)(O)O [alendronate]
further share of the dose absorbed excreted in the urine ([3]; over the next 64 hours): 5%
share of the dose absorbed excreted in the urine ([3]; within 8 hours): 40%

Compound: parnaparin sodium [LMWH]
systemic delivery of LMWH [4]: relatively poor

Compound: CCNC(=O)[C@@H]1CCCN1C(=O)[C@H](CCCNC(=N)N)NC(=O)[C@H](CC(C)C)NC(=O)[C@@H](CC(C)C)NC(=O)[C@H](Cc1ccc(O)cc1)NC(=O)[C@H](CO)NC(=O)[C@H](Cc1c[nH]c2ccccc12)NC(=O)[C@H](Cc1c[nH]cn1)NC(=O)[C@@H]1CCC(=O)N1 [leuprolide, leuprolide acetate]
bioavailability (in vivo): 8%
systemic delivery of leuprolide (in vivo; dog, in vivo): negligible

Compound: CCCCCCCCCC(=O)[O-].[Na+] [Batch C10, sodium caprate]
effect on TEER compared to the control (Caco-2 monolayers [1]): minimal reduction in TEER
serum levels of TRH over the control TRH solution [5]: significantly increases
anti-factor Xa response, NaC10 relative to NaC8 enhancer [6]: larger anti-factor Xa response
heparin absorption by APTT response vs control heparin solution [7]: significant increase in absorption
effect on permeability constant Papp for 3H-TRH compared to the control (Caco-2 monolayers [2]): considerable increases
anti-factor Xa activity relative to control heparin solution ([8]; enhancer 10 mg dose): significant increase
anti-factor Xa activity relative to control heparin solution ([8]; enhancer 35 mg dose): significant increase

More lines, main results first:

effect on permeability constant Papp for 3H-TRH compared to the control (Caco-2 monolayers [2]): considerable increases
Compound: CCCCCCCCCCCCCC(=O)[O-].[Na+] [Batch C14]
effect on TEER compared to the control (Caco-2 monolayers [1]): minimal reduction in TEER

serum levels of TRH over the control TRH solution [5]: significantly increases
Compound: CCCCCCCC(=O)[O-].[Na+] [Batch C8, sodium caprylate]
